Experimental findings from ChEMBL document CHEMBL3045863, “The direct toxicity of BABA against grapevine ecosystem organisms” (2009) are described below.

Calls of active or inactive are those of the source. The rule behind the calls is not given here.

Test [1] has as its system Saccharomyces cerevisiae. In words: Antifungal activity against Saccharomyces cerevisiae 58W3D4 assessed as reduction of doubling time at 0.001 to 100 mM. The format is functional, organism-based.
The test system of test [2] is Botrytis cinerea. Nature of the test: Antifungal activity against Botryotinia fuckeliana T4 assessed as inhibition of mycelial growth 2.4 mM at pH 4 after 5 days. The format is functional.
Test [3] has as its system Botrytis cinerea. Nature of the test: Antifungal activity against Botryotinia fuckeliana T4 assessed as inhibition of mycelial growth after 5 days. The format is functional, organism-based.
For test [4], the system named is Botrytis cinerea. Nature of the test: Antifungal activity against Botryotinia fuckeliana T4 assessed as inhibition of mycelial growth 2.4 mM at pH 7 after 5 days. The format is functional.
Test [5] has as its system Botrytis cinerea. In words: Antifungal activity against Botryotinia fuckeliana T4 assessed as inhibition of spore germination after 5 days. The format is functional, organism-based.
Test [6] concerns Saccharomyces cerevisiae. In words: Antifungal activity against Saccharomyces cerevisiae BW15 assessed as reduction of doubling time at 0.001 to 100 mM. The format is functional, organism-based.
For test [7], the system named is Saccharomyces cerevisiae. Nature of the test: Antifungal activity against Saccharomyces cerevisiae FL100 ATCC 28383 assessed as reduction of doubling time at > 10 mM. The format is functional, organism-based.

Regarding `CC(N)CC(=O)O` (racemic), the outcome in the test on Saccharomyces cerevisiae [1] and in the test with Saccharomyces cerevisiae [6] was inactive. The results for the “inhibition (INH)” value with Botrytis cinerea [2] and with Botrytis cinerea [4] were 100% and 40%, respectively. Besides, the inhibition result with Botrytis cinerea [3] and in the test on Botrytis cinerea [5] was “Dose-dependent effect” throughout. The result in the test on Saccharomyces cerevisiae [7] was Active.
